Experimental data from US11078211B2, “Photoresponsive nucleotide analog capable of photocrosslinking in visible light region” (JAPAN ADVANCED INSTITUTE OF SCIENCE AND TECHNOLOGY, priority 2017, dated 2021).

How the values were obtained:
[1] = system: ODN(T) (5′-ACGGGTGCA-3′), thymine; assay: Photocrosslinking reaction targeted for thymine, HPLC analysis after light irradiation; settings: for conversion rate: irradiation for one hour
Procedure: (§1) To an equal amount mixture (5 μM in 50 mM Na-Cacodylate buffer (pH 7.4), 100 mM NaCl) of the oligo DNA containing pc-D [hereinafter referred to as ODN (Y·pc-D), in which Y is A (adenine) or G (guanine)] and a complementary oligo DNA [hereinafter referred to as ODN(Z), in which Z is T (thymine) or C (cytosine)] was added deoxyuridine (25 μM) as an internal standard, and irradiated with light at 4° C. (400 nm, […]). The solution was analyzed by HPLC (eluent: acetonitrile/50 mM of ammonium formate; 1-20% of acetonitrile/10 min; a flow rate: 0.2 mL/min) to evaluate photoreactivity.
FIG. 3a is an explanatory diagram showing the flow of the operations. In the ODN (A-pc-D)(5′-TGCAXCCGT-3′)(SEQ ID NO: 1) in which the target of photocrosslinking is thymine (T). the nucleoside analog (pc-D) according to the present invention is introduced as an improved photoreactive element at a position of X in the sequence.
Charts arranged in the vertical axis direction correspond to light irradiation times (0 sec, 1 sec, 5 sec. 10 sec, and 30 sec), and the horizontal axis indicates a retention time (minutes). The peaks of ODN (A⋅pc-D) and ODN (T), which were present before light irradiation (0 sec), were reduced by the light irradiation, and at the same time, a peak of a photodimer (ODN (pc-D/T)) with ODN (A⋅pc-D) and ODN (T) crosslinked appeared. As the light irradiation time increased, the peak area of(ODN (pc-D/T)) increased, confirming that the photocrosslinking reaction was progressing. FIG. 3c is a graph showing a change in a crosslinking rate as a function of light irradiation time. In FIG. 3c, the horizontal axis represents a light irradiation time (seconds), and the vertical axis represents a conversion rate (%). The conversion rate, i.e., a rate of change from a monomer to a dimer, was defined as a conversion rate of 100% for a case of being completely changed to the dimer.
The respective conversion rates were 86% at 450 nm, 70% at 500 nm, and 38% at 550 nm.
The photocrosslinking reaction was carried out by the same procedure as that of ODN (A-pc-D), using a pc-S-containing oligo DNA in which T (thymine) was a target for the photocrosslinking (5′-TGCAXCCGT-3′: hereinafter referred to as ODN (A-pc-S)) (SEQ ID NO: 5), and ODN (T) which was a complementary oligo DNA (FIG. 6a).
Charts arranged in the vertical axis direction correspond to light irradiation times (0 seconds, 60 seconds), respectively, and the horizontal axis indicates a retention time (minutes).

[2] = irradiation with light having 350 nm; cited from earlier work
[3] = system: ODN (C) (5′-ACGGGCGCA-3′), cytosine; assay: Photocrosslinking reaction targeted for cytosine, HPLC analysis after light irradiation; settings: 400 nm, 30 seconds
Procedure: as §1
The photocrosslinking reaction was carried out by the same procedure as that of ODN (A⋅pc-D), using a pc-D-containing oligo DNA in which C (cytosine) was a target for the photocrosslinking (5′-TGCGXCCGT-3′; hereinafter referred to as ODN (G-pc-D)) (SEQ ID NO: 3) and a complementary oligo DNA (5′-ACGGGCGCA-3′: hereinafter referred to as ODN (C))(FIG. 4a)(SEQ ID NO: 4). As a result of irradiation with light having 400 nm for 30 seconds, the conversion rate by photocrosslinking was 71% (FIG. 4b).

ODN (A·pc-D): Oligo DNA 5′-TGCAXCCGT-3′, in which X is the nucleic acid photoreactive element (pc-D) (DNA TGCANCCGT; photoreactive element pc-D, chemistry not fully specified)
conversion rate (monomer to photodimer) ([1]; 400 nm, 10 seconds of irradiation, 4° C., 5 μM, pH 7.4): 94% | crosslinking ([1]; 400 nm, after one hour, 4° C.): ~100% | conversion rate ([1]; 450 nm): 86% | conversion rate ([1]; 500 nm): 70% | conversion rate ([1]; 550 nm): 38%

O=c1ccc2cc3ccoc3cc2o1 [psoralen]
time required for photoreaction [2]: several hours

ODN (A·pc-S): Oligo DNA 5′-TGCAXCCGT-3′, in which X is the nucleic acid photoreactive element (pc-S) (DNA TGCANCCGT; photoreactive element pc-S, chemistry not fully specified)
photodimer formation (HPLC) ([1]; 400 nm, 60 seconds): a peak of the photodimer (ODN (pc-S/T) appeared

ODN (G-pc-D): Oligo DNA 5′-TGCGXCCGT-3′, in which X is the nucleic acid photoreactive element (pc-D) (DNA TGCGNCCGT; photoreactive element pc-D, chemistry not fully specified)
conversion rate by photocrosslinking [3]: 71%
